What was measured:
Integrase [1] = biological target: T1, Integrase (Human immunodeficiency virus 1, UniProt Q7ZJM1); assay: Inhibition of HIV1 integrase 3' processing activity
Integrase [2] = biological target: T1, Integrase; assay: Inhibition of HIV1 integrase strand transfer activity

T1 sequence (Q7ZJM1 whole entry): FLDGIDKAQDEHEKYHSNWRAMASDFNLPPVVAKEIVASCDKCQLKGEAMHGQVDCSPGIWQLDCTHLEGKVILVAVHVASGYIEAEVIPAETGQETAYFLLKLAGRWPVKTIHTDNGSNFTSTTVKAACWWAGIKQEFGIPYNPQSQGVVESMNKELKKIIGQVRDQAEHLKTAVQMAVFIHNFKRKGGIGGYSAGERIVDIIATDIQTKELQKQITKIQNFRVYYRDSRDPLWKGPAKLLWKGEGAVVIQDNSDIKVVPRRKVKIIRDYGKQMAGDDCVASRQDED

`COC(=O)C(=O)CC(=O)c1ccccc1` was tested. Which IC50 (Integrase [1]) did it give?
Its IC50 is > 333 µM.

And the IC50 (Integrase [2])?
The IC50 was > 333 µM.
